Test results: patent publication US20070270350A1, “Methods and Compositions for the Prevention and Treatment of Inflammatory Diseases or Conditions” (MUSC FOUNDATION FOR RESEARCH DEVELOPMENT, priority 2003, published 2007)

Columns and labels:
ERK1/2 = ERK1/2 phosphorylation by immunoblot after LPS/IFN; format: cell-based, rat; conditions: exogenous LacCer with D-PDMP
Experimental: (§1) Western Blot Analysis. For iNOS protein, the cells were washed with cold Tris buffered saline (TBS; 20 mM Trizma base, and 137 mM NaCl, pH 7.5), lysed in 1×SDS sample loading buffer (62.5 mM Trizma base, 2% w/v SDS, 10% glycerol), following sonication and centrifugation at 1,5000×g for 5 min, the supernatant was used for the iNOS western immunoblot assay. The protein concentration of samples was determined with the detergent compatible protein assay reagent (Bio-Rad Laboratories, CA) using bovine serum albumin (BSA) as the standard. Sample was boiled for 3 min with 0.1 volumes of 10% O-mercaptoethanol and 0.5% bromophenol blue mix. Fifty μg of total cellular protein was resolved by electrophoresis in 8 or 12% polyacrylamide gels, electro-transferred to polyvinylidene difluoride (PVDF) filter and blocked with Tween 20 containing Tris-buffered saline [TBST; 10 mM Trizma base (pH 7.4), 1% Tween 20, and 150 mM NaCl] with 5% skim milk. After incubation with antiserum against iNOS (BD PharMingen, CA), or hRas (Upstate Biotechnology, CA), or phospho-specific MAPK (p42/44) (Signal Transduction), in PVDF buffer for 2 h at room temperature, the filters were washed 3 times with TBST buffer and then incubated with horseradish peroxidase conjugated anti-rabbit or mouse IgG for 1 h. The membranes were autoradiographed by using ECL-plus (Amersham Pharmacia Biotech) after washing with TBST buffer.

iNOS [1] = test: LPS/IFN-induced NO production and iNOS expression in C6 glioma cells; format: cell-based, rat; conditions: exogenous glycosphingolipid with D-PDMP
Experimental: C6 rat glioma cells obtained from ATCC were maintained in Dulbecco's modified Eagle's medium (DMEM) (GIBCO, CA) containing 10% fetal bovine serum (FBS) (GIBCO) and 10 ? g/ml gentamicin. All the cultured cells were maintained at 37° C. in 5% CO2/95% air. At 80% confluency, the cells were incubated with serum free DMEM medium for 24 h prior to the incubation with LPS/IFN ? and other chemicals. Assay for NO production. Cells were cultured in 12-well plastic tissue culture plates. After the appropriate treatment, production of NO was determined by an assay of the culture supernatant for nitrite (Green et al., 1982). Briefly, 100 μl of culture supernatant was allowed to react with 100 μl of Griess reagent. The optical density of the assay samples was measured spectrophotometrically at 570 nm. Nitrite concentrations were calculated from a standard curve derived from the reaction of NaNO2 in fresh media. Western Blot Analysis. […] The protein concentration of samples was determined with the detergent compatible protein assay reagent (Bio-Rad Laboratories, CA) using bovine serum albumin (BSA) as the standard. Sample was boiled for 3 min with 0.1 volumes of 10% O-mercaptoethanol and 0.5% bromophenol blue mix. Fifty μg of total cellular protein was resolved by electrophoresis in 8 or 12% polyacrylamide gels, electro-transferred to polyvinylidene difluoride (PVDF) filter and blocked with Tween 20 containing Tris-buffered saline [TBST; 10 mM Trizma base (pH 7.4), 1% Tween 20, and 150 mM NaCl] with 5% skim milk. After incubation with antiserum against iNOS (BD PharMingen, CA), or hRas (Upstate Biotechnology, CA), or phospho-specific MAPK (p42/44) (Signal Transduction), in PVDF buffer for 2 h at room temperature, the filters were washed 3 times with TBST buffer and then incubated with horseradish peroxidase conjugated anti-rabbit or mouse IgG for 1 h. The membranes were autoradiographed by using ECL-plus (Amersham Pharmacia Biotech) after washing with TBST buffer. RT-PCR amplification. […] PCR amplification was conducted in 25 ? l of reaction mixture with 1.0 ? l of cDNA, […] and under the manufacturer's Taq polymerase conditions (Takara, […] Shuzo Co. Ltd, Japan). The sequence of primers used for PCR amplification are as follows; iNOS, (Forward-[NT], Reverse-[NT]), GalT-2 (Forward-[NT], Reverse-[NT]), GAPDH (Forward-[NT], Reverse-[NT]).

iNOS [2] = test: LPS/IFN-induced NO production and iNOS gene expression in primary astrocytes; format: cell-based, rat
small GTPase Ras = test: Quantification of Ras activation (GST-Raf-1 Ras binding domain); format: cell-based, rat; conditions: exogenous LacCer with D-PDMP
Experimental: Quantification of Ras Activation. After stimulation, primary astrocytes in 6 well plates were washed with PBS and lysed in membrane lysis buffer (MLB; 0.5 ml of 25 mM HEPES, pH7.5, 150 mM NaCl, 1% Igepal CA-630, 0.25% sodium deoxycholate, 10% glycerol, 10 mM MgCl2, 1 mM EDTA, 25 mM NaF, 1 mM of sodium orthovanadate, and EDTA free Complete™ protease inhibitor cocktail). After centrifugation (5,000×g) at 4° C. for 5 min, supernatant was used for Ras activation assay. One hundred μg of supernatant was used for binding with agarose conjugated Ras-binding domain (RBD) of Raf-1 which was expressed in BL21 (Invitrogen) Escherichia coli strain transformed by pGEX-2T-GST-RBD in the presence of 0.1 mM of IPTG as described previously (Herrmann et al., 1995). The binding reaction was performed at 4° C. for 30 min in MLB. Following washing with MLB three times, Ras-RBD complex were denatured by adding of 2×SDS sample buffer. Ras protein was identified by western immunoblot analysis with Ras antibodies from Upstate Biotechnology.

NF-κB = NF-κB reporter, gel shift and IκB phosphorylation after LPS/IFN; format: cell-based, rat
Experimental: as §1
Nuclear Extraction and Electrophoretic mobility shift assay. Nuclear extracts from cells (1×10^7 cells) were prepared using previously published method (Dignam et al., 1983) with slight modification. Cells were harvested, washed twice with ice-cold TBS, and lysed in 400 μl of buffer A containing, 10 mM KCl, 2 mM MgCl2, 0.5 mM dithiothreitol, protease inhibitor cocktail (Sigma), and 0.1% Nonidet P40 in 10 mM HEPES, pH 7.9 for 10 min on ice. Following centrifugation at 5,000×g for 10 min, the pelleted nuclei were washed with buffer A without Nonidet P40, and re-suspended in 40 μl of buffer B containing 25% (v/v) glycerol, 0.42 M NaCl, 1.5 mM MgCl2, 0.2 mM EDTA, 0.5 mM dithiothreitol, and Complete™ protease inhibitor cocktail (Roche) in 20 mM HEPES, pH7.9 for 30 min on ice. The lysates were centrifuged at 15,000×g for 15 min and the supernatants containing the nuclear proteins were stored at −70° C. until use. Ten μg of nuclear proteins was used for the electrophoretic mobility shift assay for detection of AP-1, NFκB, and C/EBP DNA binding activities. DNA-protein binding reactions were carried out at room temperature for 20 min in 10 mM Trizma base (pH 7.9), 50 mM NaCl, 5 mM MgCl2, 1 mM EDTA, 1 mM dithiothreitol, 1 μg poly (dl-dC), 5% (v/v) glycerol, and approximately 0.3 pmol of NFκB (Santa Cruz Biotech) labeled with DIG-ddUTP using terminal deoxynucleotidyl transferase (Roche). Protein-DNA complexes were resolved from protein-free DNA in 5% polyacrylamide gels at room temperature in 50 mM Tris, pH 8.3, 0.38 M glycine, and 2 mM EDTA, and electroblotted onto positively charged nylon membranes. The chemiluminescence detection method for DIG-labeled probes is identical to the method described for the non-isotopic northern blot analysis in the preceding.
Transient Transfections and Reporter Gene Assay. 3×10^5 cells/well were cultured in 6-well plates for one day before the transfection. Transfection was performed with plasmid concentration constant (2.5 μg/transfection) and 8 μl of Fugene transfection reagent (Roche Molecular Biochemicals). One day after transfection, the cells were placed in serum free media for overnight. Following appropriate treatment, the cells were washed with phosphate buffered saline (PBS), scrapped, and then resuspended with 100 μl of lysis buffer (40 mM of Tricine pH 7.8, 50 mM of NaCl, 2 mM of EDTA, 1 mM of MgSO4, 5 mM of dithiothreitol, and 1% of Triton X-100). After incubation in room temperature for 15 min with occasional vortexing, the samples were centrifuged. […]

[3] = cited from earlier work

Compound	effect on D-PDMP inhibition of ERK 1/2 phosphorylation (ERK1/2)	effect on D-PDMP inhibition of NO production (iNOS [1])	effect on D-PDMP inhibition of iNOS mRNA and protein expression (iNOS [1])	effect on D-PDMP mediated inhibition of iNOS gene expression (iNOS [2]; LacCer 5 and 10 μM with D-PDMP 50 μM before LPS/IFN)	effect on PD98059 inhibition of iNOS gene expression (iNOS [2]; exogenous LacCer with PD98059)	effect on D-PDMP mediated inhibition of NO production (iNOS [2]; glycosphingolipid 5 and 10 μM added with D-PDMP 50 μM, 0.5 hr before LPS/IFN, 24 hrs)	effect on D-PDMP reduction of Ras activation (small GTPase Ras)	levels of phosphorylated IκB (NF-κB; LacCer added to D-PDMP)	effect on D-PDMP inhibition of NF-κB DNA binding activity (NF-κB; exogenous LacCer with D-PDMP)	effect on D-PDMP inhibition of κB-repeat luciferase activity (NF-κB; exogenous LacCer with D-PDMP)	solubility in water [3]
lactosylceramide [LacCer]	reversed	reversed	reversed	blunted	no effect	blunted	fully reversed	increased	reversed	effectively bypassed	
CCCCN1CC(O)C(O)C(O)C1CO [Miglustat, 1,5-(butylimino)-1,5-dideoxy-D-glucitol]											soluble
